Measurements from article PMC4212090, “The comprehensive analysis of DEG/ENaC subunits in Hydra reveals a large variety of peptide-gated channels, potentially involved in neuromuscular transmission” (BMC Biology, 2014).
Where “and” joins values, the source holds several entries; their conditions need not be identical. Equal entries are not always repeated. Entries after “also recorded” stand apart in the source; their conditions may differ. Where two headings read alike, the source gives them in different places.

Key:
[1] = molecular target: T1, HyNaC2/10/7 (Hydra vulgaris (Hydra magnipapillata), UniProt A0A0A0MP61+A0A0A0MP73+A8DZR6); experiment: Inhibition of HyNaC2/10/7 currents in Xenopus oocytes (TEVC); assay type: cell-based; settings: read-out: IAmil/I, relative current remaining after block by 100 μM amiloride
Protocol: (§1) One of the hallmarks of DEG/ENaCs is the block by the diuretic amiloride.
(§2) Figure 10 Diminazene is a potent inhibitor of HyNaCs. A) Current trace illustrating the concentration-dependent inhibition of HyNaC2/9/7 by diminazene. Block by 100 μM amiloride was used to compare the affinity for diminazene and amiloride. […] Dashed lines represent the zero current level. B) Concentration-response curves showing the concentration-dependent inhibition of HyNaCs by diminazene. HyNaCs, Hydra Na^+ channels.
(§3) To study the biophysical properties of the new HyNaCs, cRNA of HyNaCs was synthesized in vitro (mMessage mMachine kit, Ambion, Austin, Texas, USA) and injected into Xenopus laevis oocytes of stage V and VI. […] Whole cell currents were recorded from defolliculated oocytes by two-electrode voltage-clamp (TEVC) using the amplifier TurboTec 03X (npi electronic GmbH, Tamm, Germany). […]
(§4) EC50 values for Hydra-RFamides I and II as well as IC50 values for diminazene were determined by fits to the Hill equation using IGOR Pro (version 6.06, WaveMetrics, Inc.). Reversal potentials were defined as the first recorded data point, where currents reversed signs from negative to positive. […]

[2] = molecular target: T2, HyNaC2/3/5 (Hydra vulgaris (Hydra magnipapillata), UniProt A8DZR6+A8DZR7+D3UD58); set-up: method as in PMID 20159980; settings: ref [4], read-out: IC50 (apparent amiloride affinity); cited from earlier work
[3] = molecular target: T3, HyNaC2/9/7 (Hydra vulgaris (Hydra magnipapillata), UniProt A0A0A0MP48+A0A0A0MP73+A8DZR6); experiment: Inhibition of HyNaC2/9/7 currents in Xenopus oocytes (TEVC); assay type: cell-based; settings: read-out: IAmil/I, relative current remaining after block by 100 μM amiloride
Protocol: as §1, §2, §3, §4

[4] = molecular target: T2, HyNaC2/3/5; experiment: Inhibition of HyNaC2/3/5 currents in Xenopus oocytes (TEVC); assay type: cell-based; settings: read-out: IAmil/I, relative current remaining after block by 100 μM amiloride
Protocol: as §1, §2, §3, §4

[5] = molecular target: T4, HyNaC2/4/6 (Hydra vulgaris (Hydra magnipapillata), UniProt A0A0A0MP54+A8DZR6+A8DZR8); experiment: Inhibition of HyNaC2/4/6 currents in Xenopus oocytes (TEVC); assay type: cell-based; settings: read-out: IAmil/I, relative current remaining after block by 100 μM amiloride
Protocol: as §1, §2, §3, §4

[6] = molecular target: T5, HyNaC2/3/6 (Hydra vulgaris (Hydra magnipapillata), UniProt A0A0A0MP54+A8DZR6+A8DZR7); experiment: Inhibition of HyNaC2/3/6 currents in Xenopus oocytes (TEVC); assay type: cell-based; settings: read-out: IAmil/I, relative current remaining after block by 100 μM amiloride
Protocol: as §1, §2, §3, §4

[7] = system: Hydra magnipapillata; set-up: method as in PMID 20159980; settings: 100 μM amiloride; ref [4]; cited from earlier work
[8] = molecular target: T6, HyNaC2/3/7 (Hydra vulgaris (Hydra magnipapillata), UniProt A0A0A0MP73+A8DZR6+A8DZR7); experiment: Inhibition of HyNaC2/3/7 currents in Xenopus oocytes (TEVC); assay type: cell-based; settings: read-out: IAmil/I, relative current remaining after block by 100 μM amiloride
Protocol: as §1, §2, §3, §4

[9] = molecular target: T7, HyNaC2/11/5 (Hydra vulgaris (Hydra magnipapillata), UniProt A0A0A0MP55+A8DZR6+D3UD58); experiment: Inhibition of HyNaC2/11/5 currents in Xenopus oocytes (TEVC); assay type: cell-based; settings: read-out: IAmil/I, relative current remaining after block by 100 μM amiloride
Protocol: as §1, §2, §3, §4

[10] = molecular target: T6, HyNaC2/3/7; experiment: Activation of HyNaC2/3/7 expressed in Xenopus oocytes by Hydra-RFamides (TEVC); assay type: cell-based
Protocol: (§5) To study the biophysical properties of the new HyNaCs, cRNA of HyNaCs was synthesized in vitro (mMessage mMachine kit, Ambion, Austin, Texas, USA) and injected into Xenopus laevis oocytes of stage V and VI. After injection, oocytes were incubated for one to two days at 19°C in oocyte Ringer’s solution 2 (OR-2), which contained (in mM): 82.5 NaCl, 2.5 KCl, 1.0 Na2HPO4, 1.0 MgCl2, 1.0 CaCl2, 5.0 HEPES, 0.5 g/l PVP, 1,000 U/l penicillin and 10 mg/l streptomycin, NaOH was used to adjust pH to 7.3. Whole cell currents were recorded from defolliculated oocytes by two-electrode voltage-clamp (TEVC) using the amplifier TurboTec 03X (npi electronic GmbH, Tamm, Germany). Standard bath solution (in mM: 140 NaCl, 10 HEPES, 1.8 CaCl2 and 1.0 MgCl2. NaOH was used to adjust pH to 7.4.) was exchanged by a pump driven system combined with the oocyte testing carousel (OTC), which was controlled by the interface OTC-20 [53]. To control the OTC-20 and to record the data to the hard drive, the software CellWorks (version 5.1.1; npi electronic GmbH, Tamm, Germany) was used. Data were sampled at 0.1 to 1 kHz and filtered at 20 Hz. HyNaCs are permeable for Ca^2+, activating an endogenous CaCC [40]. Therefore, unless otherwise indicated, oocytes were injected with 50 nl of 20 mM EGTA 30 to 180 minutes before measurements. Reversal potentials and Ca^2+ permeabilities of HyNaCs were studied as described previously.
(§6) EC50 values for Hydra-RFamides I and II as well as IC50 values for diminazene were determined by fits to the Hill equation using IGOR Pro (version 6.06, WaveMetrics, Inc.). Reversal potentials were defined as the first recorded data point, where currents reversed signs from negative to positive. For I/V relationships, voltage ramps in the absence of the agonist were used to subtract background conductances. Results are reported as mean ± standard error.

[11] = system: HyNaC2/9/5; experiment: Activation of HyNaC2/9/5 in Xenopus oocytes by Hydra-RFamides; assay type: cell-based, Hydra magnipapillata; settings: channel opened by lowering extracellular Ca2+
Protocol: (§7) The contribution of the distantly related HyNaC12 to peptide-gated channels was assessed by co-expression with HyNaC2 and one or several other HyNaCs (HyNaC3 to HyNaC11). In addition, HyNaC12 was co-expressed with pools of different HyNaCs without HyNaC2. […] In fact, all HyNaCs that were activated by Hydra-RFamide I were opened by lowering the extracellular Ca^2+ concentration ([Ca^2+]e) to 10 nM (Figure 4). […] Some DEG/ENaCs are constitutively opened by an amino acid substitution at the so-called DEG-position. To further investigate whether HyNaC12 forms a functional homomeric channel, we substituted a glycine at the DEG-position by threonine (G436T), which has a large side chain. This substitution did, however, not constitutively open HyNaC12 (data not shown). This applies also for the co-expression of HyNaC12-G436T together with pools of different wild-type HyNaC subunits, leaving the function of HyNaC12 unknown.
as §3

[12] = system: functional HyNaC heterotrimer; experiment: Screen of functional HyNaC heterotrimers in Xenopus oocytes for activation by Hydra-RFamides; assay type: cell-based, Hydra magnipapillata; settings: 5 μM peptide; Xenopus oocytes
Protocol: We tested the function of the new HyNaCs by co-expression of different HyNaC subunit combinations in Xenopus oocytes. We screened for functional subunit combinations by application of 5 μM Hydra-RFamide I, a potent agonist of HyNaC2/3/5 [4]. When we expressed an individual HyNaC subunit we could never elicit currents. […] When HyNaC2 was part of the injected cRNA pool, however, Hydra-RFamide I elicited currents. Simultaneous expression of HyNaC2 with a single other HyNaC resulted only in a functional channel when we co-expressed HyNaC2 and HyNaC3; it was already known that HyNaC2 and HyNaC3 form a low-affinity peptide-gated channel.
Dashed line represents the zero current level. Amino acid sequences of Hydra-RFamides I to V are shown at the bottom. HyNaC, Hydra Na^+ channel.
Since Hydra-RFamide II had been shown previously to activate HyNaC2/3/5 [4], we tested Hydra-RFamides II to V for channel activation.
as §5

[13] = molecular target: T7, HyNaC2/11/5; experiment: Activation of HyNaC2/11/5 expressed in Xenopus oocytes by Hydra-RFamides (TEVC); assay type: cell-based
Protocol: as §5, §6

[14] = molecular target: T5, HyNaC2/3/6; experiment: Activation of HyNaC2/3/6 expressed in Xenopus oocytes by Hydra-RFamides (TEVC); assay type: cell-based
Protocol: as §5, §6

[15] = molecular target: T4, HyNaC2/4/6; experiment: Activation of HyNaC2/4/6 expressed in Xenopus oocytes by Hydra-RFamides (TEVC); assay type: cell-based
Protocol: as §5, §6

[16] = molecular target: T1, HyNaC2/10/7; experiment: Activation of HyNaC2/10/7 expressed in Xenopus oocytes by Hydra-RFamides (TEVC); assay type: cell-based; settings: EGTA-injected oocytes, saturating ligand concentration not reached
Protocol: as §5, §6

[17] = system: HyNaCs containing HyNaC12; experiment: Activation of HyNaC12-containing subunit combinations in Xenopus oocytes by Hydra-RFamides; assay type: cell-based, Hydra magnipapillata; settings: HyNaC12 co-expressed with HyNaC2 and other HyNaCs or pools; 5 μM peptide
Protocol: as §7, with “unknown. […]” for “unknown.”
as §3

[18] = molecular target: T2, HyNaC2/3/5; experiment: Activation of HyNaC2/3/5 expressed in Xenopus oocytes by Hydra-RFamides (TEVC); assay type: cell-based
Protocol: as §5, §6

[19] = molecular target: T2, HyNaC2/3/5; set-up: method as in PMID 20159980; settings: for comparison, ref [4], read-out: EC50 for Hydra-RFamide I; cited from earlier work
[20] = molecular target: T3, HyNaC2/9/7; experiment: Activation of HyNaC2/9/7 expressed in Xenopus oocytes by Hydra-RFamides (TEVC); assay type: cell-based
Protocol: as §5, §6

[21] = Hydra-RFamide I concentration-response
[22] = EGTA-injected oocytes, read-out: EC50 RFa I

T2 sequence (A8DZR6 entry or part of it): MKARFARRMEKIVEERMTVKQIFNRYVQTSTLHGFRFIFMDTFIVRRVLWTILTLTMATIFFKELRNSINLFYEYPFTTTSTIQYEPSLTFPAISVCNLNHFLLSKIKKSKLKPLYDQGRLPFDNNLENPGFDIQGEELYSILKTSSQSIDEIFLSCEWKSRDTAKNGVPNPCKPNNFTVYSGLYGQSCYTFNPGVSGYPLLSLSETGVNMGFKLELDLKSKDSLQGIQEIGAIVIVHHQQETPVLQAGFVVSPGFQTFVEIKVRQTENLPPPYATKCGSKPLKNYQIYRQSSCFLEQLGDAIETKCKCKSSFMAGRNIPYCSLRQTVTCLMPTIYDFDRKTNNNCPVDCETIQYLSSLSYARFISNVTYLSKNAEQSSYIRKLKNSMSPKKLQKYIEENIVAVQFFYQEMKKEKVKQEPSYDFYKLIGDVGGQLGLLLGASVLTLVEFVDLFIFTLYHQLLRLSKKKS
T2 sequence (D3UD58 entry or part of it): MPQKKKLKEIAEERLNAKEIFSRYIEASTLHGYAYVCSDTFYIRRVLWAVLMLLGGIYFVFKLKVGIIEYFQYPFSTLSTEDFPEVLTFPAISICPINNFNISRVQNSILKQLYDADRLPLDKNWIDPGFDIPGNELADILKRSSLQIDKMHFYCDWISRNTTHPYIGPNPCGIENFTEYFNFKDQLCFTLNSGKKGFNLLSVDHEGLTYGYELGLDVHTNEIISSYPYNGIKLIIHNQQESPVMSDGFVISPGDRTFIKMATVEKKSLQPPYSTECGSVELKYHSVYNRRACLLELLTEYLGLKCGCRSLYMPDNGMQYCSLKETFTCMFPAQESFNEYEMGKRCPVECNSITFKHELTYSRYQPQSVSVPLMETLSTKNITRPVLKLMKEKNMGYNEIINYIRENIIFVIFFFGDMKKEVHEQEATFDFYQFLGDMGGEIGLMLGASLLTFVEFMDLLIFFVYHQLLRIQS
T2 sequence (A8DZR7 entry or part of it): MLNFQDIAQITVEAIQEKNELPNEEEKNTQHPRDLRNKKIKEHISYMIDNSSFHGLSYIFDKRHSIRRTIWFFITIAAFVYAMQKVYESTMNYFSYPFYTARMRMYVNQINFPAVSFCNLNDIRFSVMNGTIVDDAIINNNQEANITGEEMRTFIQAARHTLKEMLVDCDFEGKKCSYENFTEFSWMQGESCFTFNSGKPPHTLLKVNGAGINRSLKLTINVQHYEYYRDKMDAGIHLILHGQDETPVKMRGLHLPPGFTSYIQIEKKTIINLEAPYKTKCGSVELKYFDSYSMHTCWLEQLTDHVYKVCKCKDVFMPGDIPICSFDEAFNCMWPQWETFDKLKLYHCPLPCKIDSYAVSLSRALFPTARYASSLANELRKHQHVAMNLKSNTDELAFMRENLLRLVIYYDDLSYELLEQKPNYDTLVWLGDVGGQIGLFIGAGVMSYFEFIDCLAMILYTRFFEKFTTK
T3 sequence (A0A0A0MP48 entry or part of it): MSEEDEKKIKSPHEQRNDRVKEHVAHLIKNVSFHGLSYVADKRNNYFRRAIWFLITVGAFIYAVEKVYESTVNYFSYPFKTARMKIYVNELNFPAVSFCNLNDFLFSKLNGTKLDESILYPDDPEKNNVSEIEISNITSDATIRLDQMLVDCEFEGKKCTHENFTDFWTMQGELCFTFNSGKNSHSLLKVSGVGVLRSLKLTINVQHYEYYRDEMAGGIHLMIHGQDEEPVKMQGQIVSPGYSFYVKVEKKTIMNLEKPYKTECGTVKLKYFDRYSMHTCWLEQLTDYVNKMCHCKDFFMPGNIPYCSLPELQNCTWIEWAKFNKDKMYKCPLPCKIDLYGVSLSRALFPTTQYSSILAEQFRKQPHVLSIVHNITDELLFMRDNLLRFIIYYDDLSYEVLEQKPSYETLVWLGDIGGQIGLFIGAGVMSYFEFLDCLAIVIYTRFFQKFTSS
T3 sequence (A8DZR6 entry or part of it): as the sequence (A8DZR6 entry or part of it) above
T3 sequence (A0A0A0MP73 entry or part of it): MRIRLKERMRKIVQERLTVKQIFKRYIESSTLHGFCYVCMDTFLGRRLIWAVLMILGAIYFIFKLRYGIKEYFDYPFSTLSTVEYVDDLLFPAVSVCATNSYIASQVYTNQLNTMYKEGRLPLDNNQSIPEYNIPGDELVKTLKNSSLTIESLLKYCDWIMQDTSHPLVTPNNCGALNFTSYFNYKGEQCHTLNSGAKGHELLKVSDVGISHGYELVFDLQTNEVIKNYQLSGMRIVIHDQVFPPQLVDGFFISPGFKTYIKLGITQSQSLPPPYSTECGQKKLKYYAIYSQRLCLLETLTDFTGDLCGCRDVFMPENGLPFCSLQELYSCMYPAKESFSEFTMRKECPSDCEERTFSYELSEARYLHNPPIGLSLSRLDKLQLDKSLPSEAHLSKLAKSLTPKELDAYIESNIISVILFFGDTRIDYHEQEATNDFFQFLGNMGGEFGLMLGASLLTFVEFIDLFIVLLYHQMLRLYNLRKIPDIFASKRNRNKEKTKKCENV
T7 sequence (A0A0A0MP55 entry or part of it): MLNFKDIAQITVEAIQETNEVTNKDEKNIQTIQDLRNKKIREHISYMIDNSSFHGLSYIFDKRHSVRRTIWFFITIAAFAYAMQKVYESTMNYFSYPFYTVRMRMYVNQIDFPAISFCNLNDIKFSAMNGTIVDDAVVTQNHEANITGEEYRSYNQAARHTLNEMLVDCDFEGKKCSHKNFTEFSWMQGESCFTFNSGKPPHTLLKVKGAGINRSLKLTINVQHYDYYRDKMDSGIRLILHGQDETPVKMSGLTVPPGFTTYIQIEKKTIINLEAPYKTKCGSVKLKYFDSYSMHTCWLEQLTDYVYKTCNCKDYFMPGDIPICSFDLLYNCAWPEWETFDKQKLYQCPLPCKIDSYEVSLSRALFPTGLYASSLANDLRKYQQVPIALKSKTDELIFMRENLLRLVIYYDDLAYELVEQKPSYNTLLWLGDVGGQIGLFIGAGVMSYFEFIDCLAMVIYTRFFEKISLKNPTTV
T7 sequence (A8DZR6 entry or part of it): as the sequence (A8DZR6 entry or part of it) above
T7 sequence (D3UD58 entry or part of it): as the sequence (D3UD58 entry or part of it) above
T1 sequence (A0A0A0MP61 entry or part of it): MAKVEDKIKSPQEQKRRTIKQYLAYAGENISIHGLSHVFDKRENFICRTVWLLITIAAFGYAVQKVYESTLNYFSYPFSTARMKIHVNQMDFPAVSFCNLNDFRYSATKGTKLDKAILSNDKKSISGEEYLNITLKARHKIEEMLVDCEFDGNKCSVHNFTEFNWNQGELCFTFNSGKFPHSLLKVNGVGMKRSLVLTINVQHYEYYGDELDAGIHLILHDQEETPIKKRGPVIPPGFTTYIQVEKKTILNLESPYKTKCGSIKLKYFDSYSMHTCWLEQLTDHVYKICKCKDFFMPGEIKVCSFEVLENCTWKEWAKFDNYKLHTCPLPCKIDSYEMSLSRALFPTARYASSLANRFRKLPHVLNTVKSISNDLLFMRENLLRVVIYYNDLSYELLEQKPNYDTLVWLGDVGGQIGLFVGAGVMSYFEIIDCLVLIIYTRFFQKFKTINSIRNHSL
T1 sequence (A0A0A0MP73 entry or part of it): as the sequence (A0A0A0MP73 entry or part of it) above
T1 sequence (A8DZR6 entry or part of it): as the sequence (A8DZR6 entry or part of it) above
T6 sequence (A8DZR7 entry or part of it): as the sequence (A8DZR7 entry or part of it) above
T6 sequence (A0A0A0MP73 entry or part of it): as the sequence (A0A0A0MP73 entry or part of it) above
T6 sequence (A8DZR6 entry or part of it): as the sequence (A8DZR6 entry or part of it) above
T4 sequence (A8DZR8 entry or part of it): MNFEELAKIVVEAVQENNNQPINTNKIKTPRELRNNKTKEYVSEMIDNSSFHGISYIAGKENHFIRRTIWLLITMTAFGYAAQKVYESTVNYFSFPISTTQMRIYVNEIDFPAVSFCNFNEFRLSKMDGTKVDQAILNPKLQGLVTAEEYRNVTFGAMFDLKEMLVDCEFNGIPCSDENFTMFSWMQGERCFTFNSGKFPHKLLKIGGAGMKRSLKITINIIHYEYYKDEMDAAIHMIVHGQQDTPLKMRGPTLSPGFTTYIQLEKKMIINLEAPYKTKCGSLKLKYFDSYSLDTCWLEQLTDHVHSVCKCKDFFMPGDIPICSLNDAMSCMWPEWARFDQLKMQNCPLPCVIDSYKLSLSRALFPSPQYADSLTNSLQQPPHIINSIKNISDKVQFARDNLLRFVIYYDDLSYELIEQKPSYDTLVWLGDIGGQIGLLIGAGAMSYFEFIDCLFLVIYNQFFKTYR
T4 sequence (A0A0A0MP54 entry or part of it): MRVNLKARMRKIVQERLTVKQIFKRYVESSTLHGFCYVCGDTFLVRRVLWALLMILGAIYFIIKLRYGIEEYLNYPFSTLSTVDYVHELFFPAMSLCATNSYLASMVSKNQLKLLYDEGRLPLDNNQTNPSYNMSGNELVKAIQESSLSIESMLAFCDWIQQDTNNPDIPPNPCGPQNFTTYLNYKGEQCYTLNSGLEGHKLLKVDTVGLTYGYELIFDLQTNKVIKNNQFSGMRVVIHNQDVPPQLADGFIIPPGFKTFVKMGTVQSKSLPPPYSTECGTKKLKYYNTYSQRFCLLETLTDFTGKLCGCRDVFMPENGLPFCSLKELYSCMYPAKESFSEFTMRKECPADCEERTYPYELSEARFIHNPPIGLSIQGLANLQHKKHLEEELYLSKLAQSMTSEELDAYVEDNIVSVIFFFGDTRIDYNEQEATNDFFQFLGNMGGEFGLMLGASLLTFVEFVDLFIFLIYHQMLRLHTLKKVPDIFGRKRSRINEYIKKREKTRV
T4 sequence (A8DZR6 entry or part of it): as the sequence (A8DZR6 entry or part of it) above
T5 sequence (A0A0A0MP54 entry or part of it): as the sequence (A0A0A0MP54 entry or part of it) above
T5 sequence (A8DZR7 entry or part of it): as the sequence (A8DZR7 entry or part of it) above
T5 sequence (A8DZR6 entry or part of it): as the sequence (A8DZR6 entry or part of it) above

Q: Which results are given for N=C(N)NC(=O)c1nc(Cl)c(N)nc1N [amiloride]?
A: remaining activity at 100 µM [1]: 80 ± 10%; IC50 [2]: ~120 µM; remaining activity at 100 µM [3]: 30 ± 10%; remaining activity at 100 µM [4]: 50 ± 10%; remaining activity at 100 µM [5]: 30 ± 10%; remaining activity at 100 µM [6]: 30 ± 10%; feeding reaction of living Hydra [7]: delays the feeding reaction; remaining activity at 100 µM [8]: 30 ± 10%; remaining activity at 100 µM [9]: 70 ± 10%

Q: For Hydra-RFamide I, which EC50 ([10]; EGTA-injected oocytes) is on record?
A: 0.19 ± 0.04 µM

Q: What about the “Imax RFa I, current amplitude at maximal concentration of Hydra-RFamide I” value (“Imax RFa I, current amplitude” below) ([10]; EGTA-injected oocytes) of the same compound?
A: 19.6 ± 1.8 μA and 19.6 ± 1.8 (14) μA

Q: What about the “Hill Coeff.” value [10, 21] of the same compound?
A: 1.6 ± 0.4

Q: And the “activation of HyNaC2/9/5” value [11]?
A: insensitive; also recorded: not activated

Q: What about the “activation of functional HyNaC heterotrimers (current elicited)” value [12] of the same compound?
A: activation of HyNaCs

Q: And the EC50 [13, 22]?
A: 13.8 ± 1.9 µM

Q: What about the “Hill Coeff.” value [13, 21] of the same compound?
A: 0.9 ± 0.1

Q: What about the EC50 ([14]; EGTA-injected oocytes) of the same compound?
A: 0.29 ± 0.06 µM

Q: And the “Imax RFa I, current amplitude” value ([14]; EGTA-injected oocytes)?
A: 15.7 ± 3.2 μA and 15.7 ± 3.2 (10) μA

Q: What about the “Hill Coeff.” value [14, 21] of the same compound?
A: 1.2 ± 0.2

Q: What about the EC50 ([15]; EGTA-injected oocytes) of the same compound?
A: 0.7 ± 0.08 µM

Q: What about the “Hill Coeff.” value [15, 21] of the same compound?
A: 1.3 ± 0.1

Q: And the EC50 [16]?
A: > 30 µM

Q: And the “EC50 RFa I” value [16]?
A: too low to calculate the EC50 precisely

Q: What about the “activation of channels containing HyNaC12” value [17] of the same compound?
A: In no case did this result in channels that could be activated

Q: What about the “Imax RFa I, current amplitude” value ([18]; EGTA-injected oocytes) of the same compound?
A: 9.2 ± 1.9 μA and 9.2 ± 1.9 (9) μA

Q: What about the EC50 [18, 22] of the same compound?
A: 3.48 ± 0.55 µM

Q: And the “Hill Coeff.” value [18, 21]?
A: 1.2 ± 0.1

Q: And the EC50 [19]?
A: ~5 µM

Q: What about the EC50 [20, 22] of the same compound?
A: 0.04 ± 0.01 µM

Q: What about the “Hill Coeff.” value [20, 21] of the same compound?
A: 1.5 ± 0.3
